Measurements: patent US11197859B2 (AUTIFONY THERAPEUTICS LIMITED, priority 2010, dated 2021)

Assays:
[1] = tested on: parvalbumin-positive interneurons in the somatosensory cortex; experiment: Firing of parvalbumin-positive interneurons in somatosensory cortex slices, in vitro; format: cell-based, mouse; details: for frequency of action potential firing in response to step currents: vs TEA alone, p<0.05
Male CD-1 mice = experiment: Psychostimulant (amphetamine)-induced hyperactivity in mice; details: AMPH 2 mg/kg i.p. + compound 10 mg/kg p.o. 30 min before; over 60 min; mean ± sem
Male CD rats = experiment: Electroshock seizure model in rats; format: in vivo, rat; details: 2 hours before test
Procedure: Male CD rats (85-130 g) were supplied by Charles River, Italy.
Testing involved determining the threshold for tonic hindlimb extensor seizures using a Hugo Sachs Electronik stimulator which delivers a constant current of 0.3 second duration, 50 Hz, sinewave form, fully adjustable between 1 and 300 mA. Stimuli were delivered via corneal electrodes (Stean T O, Atkins A R, Heidbreder C A, Quinn L P, Trail B K, Upton N. (2005) Br J Pharmacol. 144(5):628-35). Seizure threshold was determined using the ‘up and down’ method of Kimball et al. (1957)(Kimball A W, Burnett W T Jr, Doherty D G. (1957) Radiat Res. 7(1):1-12). The first animal tested in each group was stimulated with a current that might be expected to be close to the threshold for induction of a seizure. If a tonic seizure was not induced, then the next animal in the group received a stimulus 5 mA higher. If a tonic seizure was induced, then the next animal received a stimulus 5 mA lower. This is repeated for all animals within the control (vehicle) group. In the case of groups treated with a test compound steps of 5 to 10 mA were used. At the end of the study, blood samples were taken for analysis of the drug concentrations in this compartment (n=4/group).
All doses were calculated as base. Sodium valproate was suspended in Methocell 1% (w/v) and dosed via the oral (p.o.) route at 5 mL/kg 1 hour before test. Reference Example RE1 was dissolved in DMSO and then suspended in Methocell 1% (w/v) to a final DMSO concentration of 5% (v/v). Reference Example RE1 was then dosed p.o. at 5 mL/kg 2 hours before test.
Induction of seizure is measured as an all-or-nothing effect scored as either present (+) or absent (0) for each animal. […] Drug effects were calculated as the % change in CC50. Significant differences between drug-treated animals and appropriate vehicle treated groups were assessed according to the methods of Litchfield and Wilcoxon (1949).

Structure (SMILES): CC[C@H]1NC(=O)N(c2ccc(Oc3ccc(C)c(OC)c3)nc2)C1=O [RE1, (5R)-5-ethyl-3-(6-{[4-methyl-3-(methyloxy)phenyl]oxy}-3-pyridinyl)-2,4-imidazolidinedione]
- decrease of mean action potential half-width ([1]; TEA (0.5 mM) + compound 1 μM vs TEA (0.5 mM) only, p<0.05, n=9): 24%
- frequency of action potential firing in response to step currents ([1]; TEA (0.5 mM) + compound 1 μM, n=9): significantly reversed
- decrease of mean action potential half-width ([1]; TEA (0.5 mM) + compound 10 μM vs TEA (0.5 mM) only, p<0.01, n=5): 36%
- frequency of action potential firing in response to step currents ([1]; TEA (0.5 mM) + compound 10 μM, n=5): significantly reversed
- Total Distance Travelled (cm) (Male CD-1 mice): 15267 ± 3166 cm
- increase in seizure threshold (% change in CC50) (Male CD rats; 30 mg/kg p.o.): 91%
- increase in seizure threshold (% change in CC50) (Male CD rats; 60 mg/kg p.o.): 218%
